Read-outs that look alike come from different tables or passages of the source.
Test: Plasma and tissue distribution in SD rats
Assay type: in vivo
Conditions: for Tissue/Plasma Ratio (AUCinf) / Kp: SD rat; for Kp / AUC(0-t): rat; for Kp: oral, read-out: Tissue/Plasma Ratio (AUCinf); for AUC(0-t): read-out: AUClast; for AUC0-inf: read-out: AUCINF_obs
Text: The following Example describes the methods and data used to evaluate the tissue distribution of TYK2 inhibitors following the administration of either compound 1 or compound 2.
Thirty (30, 15/sex) SD rats supplied by Beijing Vital River Laboratory Animal Technology Co., Ltd. were used in this study. The animals were confirmed to be healthy before being assigned to the study. The room (s) was controlled and monitored for relative humidity (targeted mean range 40% to 70%) and temperature (targeted mean range 20° C. to 26° C.) with 15 or above air changes/hour. The room was on a 12-hour light/dark cycle except when interruptions were necessitated by study activities. Fresh drinking water (reverses osmosis) was available to all animals, ad libitum. Certified animal diet from certified vendor was available to all animals, ad libitum.
Animals were weighed prior to dose administration to calculate the actual dose volume. The body weights were in the range from 245.39 to 276.33 g for males and 182.29 to 215.69 g for females on the first dosing day. The animals in Groups 1 and 2 received a single oral gavage administration of test compound 1. Cage-side observations for the general health condition and appearance of the animal were performed before and after dosing and at each time point of sample collection. Unusual observations were recorded throughout the duration of the study.
The vehicle was 0.5% methyl cellulose (4000 cps) in water. The formulation was prepared according to the following steps. Group 1: 25.95 mg of compound 1 was weighed into a glass vial. 5000 μL of vehicle was added into the vial and stirred for 30 min at 1700 rpm to get a homogenous opaque suspension. 5000 μL of vehicle was added into the vial and stirred for 10 min at 1700 rpm to get a homogenous opaque suspension. 5000 μL+5000 μL+5000 μL+924 μL of vehicle was added into the vial and stirred for 10 min at 1700 rpm to get a homogenous opaque suspension. Group 2: 81.66 mg of compound 1 was weighed into a glass vial. 5000 μL of vehicle was added into the vial and stirred for 30 min at 1700 rpm to get a homogenous opaque suspension. 5000 μL of vehicle was added into the vial and stirred for 10 min at 1700 rpm to get a homogenous opaque suspension. 10 mL+10 mL+10 mL+20 mL+10 mL+10 mL+1580 μL of vehicle was added into the vial and stirred for 10 min at 1700 rpm to get a homogenous opaque suspension.
Blood (about 0.2 mL) was collected at each time point via jugular vein puncture from each study animal. The actual time for each sample collection was recorded. The acceptable deviations on sampling time were ±1 min for the time points pre-dose through 1 hour post-dose, and +5% of the nominal time for time points after 1 hour post-dose.
All blood samples were transferred into commercial tubes containing K2-EDTA. After blood was collected, the samples were placed on wet ice and processed for plasma within 60 minutes of collection by centrifugation at approximately 4° C., 3200×g for 10 minutes, and then quickly frozen over dry ice and kept at −60° C. or lower until LC-MS/MS analysis.
Following terminal blood sample collection, animals were conducted CO2 euthanasia, the chest and abdominal cavities were opened carefully lengthwise using scissors to expose the internal organs in preparation of tissue perfusion. A needle was used to puncture a small hole into the left ventricle of the heart, and then clamped with a hemostat. […] Fluid (cold 1×PBS) was infused until the liver pales (typically 2-3 minutes). Following perfusion, 14 kinds of tissues (spleen, bone marrow, adipose, brain, heart, kidney, liver, lung, skin, small intestine, large intestine, eye, gonads, and bladder) were collected from each animal, respectively.
Each tissue was weighed and homogenized on wet ice using homogenizing buffer (MeOH/15 mM PBS 1:2) at the ratio of 1:9 (1 g tissue with 9 mL buffer). The tissue homogenate was kept at −60° C. or lower until LC-MS/MS analysis. […]

[1] = female, Sprague-Dawley (SD), large intestine, F SD rat, L. Intestine
[2] = female, Sprague-Dawley (SD), F SD rat, Bone Marrow
[3] = female, Sprague-Dawley (SD), F SD rat, Brain
[4] = female, Sprague-Dawley (SD), F SD rat, Eye
[5] = female, Sprague-Dawley (SD), F SD rat, Heart
[6] = female, Sprague-Dawley (SD), F SD rat, Kidney
[7] = female, Sprague-Dawley, F SD rat, Adipose
[8] = female, Sprague-Dawley, F SD rat, Bladder
[9] = female, Sprague-Dawley, F SD rat, Spleen
[10] = female, small intestine, F SD rat, S. Intestine
[11] = male, Sprague-Dawley (SD), large intestine, M SD rat, L. Intestine
[12] = male, Sprague-Dawley (SD), M SD rat, Brain
[13] = male, Sprague-Dawley (SD), M SD rat, Eye
[14] = male, Sprague-Dawley (SD), M SD rat, Heart
[15] = male, Sprague-Dawley (SD), M SD rat, Kidney
[16] = male, Sprague-Dawley, M SD rat, Adipose
[17] = male, Sprague-Dawley, M SD rat, Bladder
[18] = male, Sprague-Dawley, M SD rat, Skin
[19] = male, Sprague-Dawley, M SD rat, Spleen
[20] = male, Sprague-Dawley, M SD rat, Testis
[21] = male, small intestine, M SD rat, S. Intestine

C[C@@H](c1ccc(Nc2cc(Nc3ncc(F)cc3S(C)(=O)=O)ncn2)nc1)N1CC2(COC2)C1 [Compound 2, (S)—N^4-(5-(1-(2-oxa-6-azaspiro[3.3]heptan-6-yl)ethyl)pyridin-2-yl)-N^6-(5-fluoro-3-(methylsulfonyl)pyridin-2-yl)pyrimidine-4,6-diamine]
HL_Lambda_z (F SD rat, Adipose): 2.78 h | HL_Lambda_z (F SD rat, Bladder): 2.37 h | HL_Lambda_z (F SD rat, Bone Marrow): 2.26 h | HL_Lambda_z (F SD rat, Eye): 6.23 h | HL_Lambda_z (F SD rat, Kidney): 2.34 h | HL_Lambda_z (F SD rat, L. Intestine): 4.97 h | HL_Lambda_z (F SD rat, Liver): 2.31 h | HL_Lambda_z (F SD rat, Lung): 2.26 h | HL_Lambda_z (F SD rat, Plasma): 3.20 h | HL_Lambda_z (F SD rat, S. Intestine): 2.06 h | HL_Lambda_z (F SD rat, Skin): 5.71 h | HL_Lambda_z (F SD rat, Spleen): 2.29 h | HL_Lambda_z (M SD rat, Bladder): 2.13 h | HL_Lambda_z (M SD rat, Kidney): 3.28 h | HL_Lambda_z (M SD rat, Plasma): 2.21 h | HL_Lambda_z (M SD rat, S. Intestine): 2.05 h | HL_Lambda_z (M SD rat, Skin): 2.43 h | HL_Lambda_z (M SD rat, Spleen): 2.24 h | Tissue/Plasma Ratio (AUCinf) (Kidney): 13 | Tissue/Plasma Ratio (AUCinf) (Large Intestine): 23 | Kp (Sprague-Dawley (SD), bone marrow / plasma, Bone Marrow): 9.6 | Kp (Sprague-Dawley, adipose, Adipose): 4.5 | Kp (Sprague-Dawley, bladder, Bladder): 8.7 | Kp (Sprague-Dawley, eye, Eye): 1.2 | Kp (Sprague-Dawley, kidney, Kidney): ~13 | Kp (Sprague-Dawley, large intestine, Large Intestine): ~23 | Kp (Sprague-Dawley, liver, Liver): 8.7 | Kp (Sprague-Dawley, lung, Lung): 7.1 | Kp (Sprague-Dawley, skin, Skin): 2.5 | Kp (Sprague-Dawley, small intestine, Small Intestine): 27 | Kp (Sprague-Dawley, spleen, Spleen): 12 | AUC(0-t) (female, SD, bone marrow, F SD rat, Bone Marrow): 38700 ng·h/mL | AUC(0-t) (female, SD, lung, F SD rat, Lung): 29400 ng·h/mL | AUC(0-t) (female, SD, ovaries, F SD rat, Ovaries): 4360 ng·h/mL | AUC(0-t) (female, SD, plasma, F SD rat, Plasma): 4120 ng·h/mL | AUC(0-t) (female, SD, skin, F SD rat, Skin): 8430 ng·h/mL | AUC(0-t) (female, SD, small intestine, F SD rat, S. Intestine): 110000 ng·h/mL | Tmax [1]: 120 min | AUC(0-t) (female, Sprague-Dawley (SD), eye, F SD rat, Eye): 4880 ng·h/mL | AUC(0-t) (female, Sprague-Dawley (SD), heart, F SD rat, Heart): 8990 ng·h/mL | AUC(0-t) (female, Sprague-Dawley (SD), kidney, F SD rat, Kidney): 51800 ng·h/mL | AUC(0-t) [1]: 95000 ng·h/mL | Cmax [2]: 3080 ng/mL | Tmax [2]: 30 min | AUC0-inf [2]: 38300 ng·h/mL | Cmax [3]: 104 ng/mL | Tmax [3]: 30 min | Cmax [4]: 700 ng/mL | Tmax [4]: 30 min | AUC0-inf [4]: 4910 ng·h/mL | Cmax [5]: 2500 ng/mL | Tmax [5]: 30 min | Cmax [6]: 9870 ng/mL | Tmax [6]: 30 min | AUC0-inf [6]: 51800 ng·h/mL | AUC(0-t) (female, Sprague-Dawley, adipose, F SD rat, Adipose): 18700 ng·h/mL | AUC(0-t) (female, Sprague-Dawley, bladder, F SD rat, Bladder): 18600 ng·h/mL | AUC(0-t) (female, Sprague-Dawley, spleen, F SD rat, Spleen): 43400 ng·h/mL | Cmax [7]: 4310 ng/mL | Tmax [7]: 30 min | Cmax [8]: 2650 ng/mL | Tmax [8]: 30 min | AUC0-inf [8]: 18600 ng·h/mL | Cmax [9]: 12500 ng/mL | Tmax [9]: 30 min | Cmax [10]: 24800 ng/mL | Tmax [10]: 30 min | AUC0-inf [10]: 130000 ng·h/mL | Tmax (female, F SD rat, Liver): 30 min | AUC0-inf (female, F SD rat, Liver): 35900 ng·h/mL | Cmax (female, F SD rat, Lung): 3070 ng/mL | Tmax (female, F SD rat, Lung): 30 min | AUC0-inf (female, F SD rat, Lung): 29500 ng·h/mL | Cmax (female, F SD rat, Ovaries): 1940 ng/mL | Tmax (female, F SD rat, Ovaries): 30 min | Cmax (female, F SD rat, Plasma): 625 ng/mL | Tmax (female, F SD rat, Plasma): 480 min | AUC0-inf (female, F SD rat, Plasma): 4140 ng·h/mL | Cmax (female, F SD rat, Skin): 1180 ng/mL | Tmax (female, F SD rat, Skin): 30 min | AUC0-inf (female, F SD rat, Skin): 8450 ng·h/mL | AUC(0-t) (male, SD, liver, M SD rat, Liver): 14700 ng·h/mL | AUC(0-t) (male, SD, lung, M SD rat, Lung): 18200 ng·h/mL | AUC(0-t) (male, SD, skin, M SD rat, Skin): 7820 ng·h/mL | Cmax [11]: 7320 ng/mL | Tmax [11]: 480 min | AUC(0-t) (male, Sprague-Dawley (SD), bone marrow, M SD rat, Bone Marrow): 19600 ng·h/mL | AUC(0-t) (male, Sprague-Dawley (SD), brain, M SD rat, Brain): 273 ng·h/mL | AUC(0-t) (male, Sprague-Dawley (SD), heart, M SD rat, Heart): 2880 ng·h/mL | AUC(0-t) (male, Sprague-Dawley (SD), kidney, M SD rat, Kidney): 32600 ng·h/mL | Tmax (male, Sprague-Dawley (SD), M SD rat, Bone Marrow): 30 min | Cmax [12]: 68.9 ng/mL | Tmax [12]: 30 min | Cmax [13]: 535 ng/mL | Tmax [13]: 156 min | Cmax [14]: 2520 ng/mL | Tmax [14]: 30 min | Cmax [15]: 9620 ng/mL | Tmax [15]: 30 min | AUC0-inf [15]: 32600 ng·h/mL | Cmax (male, Sprague-Dawley (SD), M SD rat, Liver): 6340 ng/mL | AUC(0-t) (male, Sprague-Dawley, adipose, M SD rat, Adipose): 12200 ng·h/mL | AUC(0-t) (male, Sprague-Dawley, bladder, M SD rat, Bladder): 36200 ng·h/mL | AUC(0-t) (male, Sprague-Dawley, spleen, M SD rat, Spleen): 25700 ng·h/mL | AUC(0-t) (male, Sprague-Dawley, testis, M SD rat, Testis): 5090 ng·h/mL | Cmax [16]: 3900 ng/mL | Tmax [16]: 30 min | Cmax [17]: 6820 ng/mL | Tmax [17]: 33.6 min | AUC0-inf [17]: 36300 ng·h/mL | Tmax [18]: 30 min | AUC0-inf [18]: 8020 ng·h/mL | Cmax [19]: 6860 ng/mL | Tmax [19]: 30 min | Cmax [20]: 318 ng/mL | Tmax [20]: 480 min | Cmax [21]: 28900 ng/mL | Tmax [21]: 30 min | Cmax (male, M SD rat, Bone Marrow): 4530 ng/mL | Tmax (male, M SD rat, Liver): 30 min | Cmax (male, M SD rat, Lung): 4410 ng/mL | Tmax (male, M SD rat, Lung): 30 min | Cmax (male, M SD rat, Plasma): 509 ng/mL | Tmax (male, M SD rat, Plasma): 180 min | AUC0-inf (male, M SD rat, Plasma): 2680 ng·h/mL | Cmax (male, M SD rat, Skin): 1460 ng/mL

From patent US20260048051A1, “TREATMENT OF INFLAMMATORY BOWEL DISEASE” (Atomwise Inc., priority 2024, published 2026)
